Experimental data taken from patent US5358951A, “Angiotensin II receptor blocking 2, 3, 6 substituted quinazolinones” (American Cyanamid Company, priority 1993, dated 1994).

Test system: vasopressor response of angiotensin II
Assay: AII Challenge: antagonism of angiotensin II vasopressor response
Assay type: in vivo
Conditions: for inhibition in vivo at 1 mg/kg / inhibition in vivo at 5 mg/kg: Rattus norvegicus; for inhibition in vivo at 1 mg/kg: iv; for inhibition in vivo at 5 mg/kg: po
How it was run: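 Percent antagonism is based on the systolic blood pressure rise (mmHg) to i.v. angiotensin II at 0.05 and 0.1 ug/kg. Each rat's own predose response was taken as 100%. Challenges were repeated from 30 to 300 min after i.v., i.p. or oral compound in cannulated conscious male SHR, 16-20 weeks old.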

[1] = 1 mg/kg i.v., AII 0.05 mcg/kg IV, 30 min post dose
[2] = 1 mg/kg i.v., AII 0.05 mcg/kg IV, 60 min post dose
[3] = 1 mg/kg i.v., AII 0.05 mcg/kg IV, 90 min post dose
[4] = 1 mg/kg i.v., AII 0.05 mcg/kg IV, 120 min post dose
[5] = 1 mg/kg i.v., AII 0.05 mcg/kg IV, 180 min post dose
[6] = 1 mg/kg i.v., AII 0.05 mcg/kg IV, 240 min post dose
[7] = 1 mg/kg i.v., AII 0.05 mcg/kg IV, 300 min post dose
[8] = 1 mg/kg i.v., AII 0.1 mcg/kg IV, 30 min post dose
[9] = 1 mg/kg i.v., AII 0.1 mcg/kg IV, 60 min post dose
[10] = 1 mg/kg i.v., AII 0.1 mcg/kg IV, 90 min post dose
[11] = 1 mg/kg i.v., AII 0.1 mcg/kg IV, 120 min post dose
[12] = 1 mg/kg i.v., AII 0.1 mcg/kg IV, 180 min post dose
[13] = 1 mg/kg i.v., AII 0.1 mcg/kg IV, 240 min post dose
[14] = 1 mg/kg i.v., AII 0.1 mcg/kg IV, 300 min post dose
[15] = 0.5 h, 1 mg/kg i.v., AII 0.05 mcg/kg IV, 30 min post dose
[16] = 0.5 h, 1 mg/kg i.v., AII 0.1 mcg/kg IV, 30 min post dose
[17] = 1 h, 1 mg/kg i.v., AII 0.05 mcg/kg IV, 60 min post dose
[18] = 1 h, 1 mg/kg i.v., AII 0.1 mcg/kg IV, 60 min post dose
[19] = 2 h, 1 mg/kg i.v., AII 0.05 mcg/kg IV, 120 min post dose
[20] = 2 h, 1 mg/kg i.v., AII 0.1 mcg/kg IV, 120 min post dose
[21] = 3 h, 1 mg/kg i.v., AII 0.05 mcg/kg IV, 180 min post dose
[22] = 3 h, 1 mg/kg i.v., AII 0.1 mcg/kg IV, 180 min post dose
[23] = 4 h, 1 mg/kg i.v., AII 0.05 mcg/kg IV, 240 min post dose
[24] = 4 h, 1 mg/kg i.v., AII 0.1 mcg/kg IV, 240 min post dose
[25] = 5 h, 1 mg/kg i.v., AII 0.05 mcg/kg IV, 300 min post dose
[26] = 5 h, 1 mg/kg i.v., AII 0.1 mcg/kg IV, 300 min post dose
[27] = […], 1 mg/kg i.v., AII 0.05 mcg/kg IV, 90 min post dose
[28] = […], 1 mg/kg i.v., AII 0.1 mcg/kg IV, 90 min post dose

Structure (SMILES): CCCCc1nc2ccc([C@@]3(C)C[C@@H]4CCC(C)(C)N4O3)cc2c(=O)n1Cc1ccc(-c2ccccc2-c2nnn[nH]2)cc1 (relative stereo) [Example 66, Cis-2-Butyl-6-(hexahydro-2,6,6-trimethylpyrrolo[1,2-b]isoxazol-2-yl)-3-[[2'-(1H-tetrazol-5-yl)[1,1'-biphenyl]-4-yl]methyl]-4(3H)-quinazolinone]
- Response Average Change [1]: 2.5 mmHg
- Response Average Change [2]: 0 mmHg
- Response Average Change [3]: 9 mmHg
- Response Average Change [4]: 11.5 mmHg
- Response Average Change [5]: 15 mmHg
- Response Average Change [6]: 12.5 mmHg
- Response Average Change [7]: 20 mmHg
- Response Average Change [8]: 5 mmHg
- Response Average Change [9]: 2.5 mmHg
- Response Average Change [10]: 7.5 mmHg
- Response Average Change [11]: 7.5 mmHg
- Response Average Change [12]: 14 mmHg
- Response Average Change [13]: 14 mmHg
- Response Average Change [14]: 17.5 mmHg
- Response Average Change (5 mg/kg P.O., AII 0.05 mcg/kg IV, 30 min post dose): 10 mmHg
- Response Average Change (5 mg/kg P.O., AII 0.05 mcg/kg IV, 60 min post dose): 7.5 mmHg
- Response Average Change (5 mg/kg P.O., AII 0.05 mcg/kg IV, 90 min post dose): 3 mmHg
- Response Average Change (5 mg/kg P.O., AII 0.05 mcg/kg IV, 120 min post dose): 7.5 mmHg
- Response Average Change (5 mg/kg P.O., AII 0.05 mcg/kg IV, 180 min post dose): 5 mmHg
- Response Average Change (5 mg/kg P.O., AII 0.05 mcg/kg IV, 240 min post dose): 5 mmHg
- Response Average Change (5 mg/kg P.O., AII 0.05 mcg/kg IV, 300 min post dose): 10 mmHg
- Response Average Change (5 mg/kg P.O., AII 0.1 mcg/kg IV, 30 min post dose): 21 mmHg
- Response Average Change (5 mg/kg P.O., AII 0.1 mcg/kg IV, 60 min post dose): 17.5 mmHg
- Response Average Change (5 mg/kg P.O., AII 0.1 mcg/kg IV, 90 min post dose): 2.5 mmHg
- Response Average Change (5 mg/kg P.O., AII 0.1 mcg/kg IV, 120 min post dose): 7.5 mmHg
- Response Average Change (5 mg/kg P.O., AII 0.1 mcg/kg IV, 180 min post dose): 12.5 mmHg
- Response Average Change (5 mg/kg P.O., AII 0.1 mcg/kg IV, 240 min post dose): 10 mmHg
- Response Average Change (5 mg/kg P.O., AII 0.1 mcg/kg IV, 300 min post dose): 10 mmHg
- inhibition in vivo at 1 mg/kg [15]: 93%
- inhibition in vivo at 1 mg/kg [16]: 89%
- inhibition in vivo at 1 mg/kg [17]: 100%
- inhibition in vivo at 1 mg/kg [18]: 94%
- inhibition in vivo at 1 mg/kg [19]: 69%
- inhibition in vivo at 1 mg/kg [20]: 83%
- inhibition in vivo at 1 mg/kg [21]: 60%
- inhibition in vivo at 1 mg/kg [22]: 68%
- inhibition in vivo at 1 mg/kg [23]: 67%
- inhibition in vivo at 1 mg/kg [24]: 68%
- inhibition in vivo at 1 mg/kg [25]: 47%
- inhibition in vivo at 1 mg/kg [26]: 60%
- inhibition in vivo at 1 mg/kg [27]: 76%
- inhibition in vivo at 1 mg/kg [28]: 83%
- inhibition in vivo at 5 mg/kg (0.5 h, 5 mg/kg P.O., AII 0.05 mcg/kg IV, 30 min post dose): 77%
- inhibition in vivo at 5 mg/kg (0.5 h, 5 mg/kg P.O., AII 0.1 mcg/kg IV, 30 min post dose): 52%
- inhibition in vivo at 5 mg/kg (1 h, 5 mg/kg P.O., AII 0.05 mcg/kg IV, 60 min post dose): 83%
- inhibition in vivo at 5 mg/kg (1 h, 5 mg/kg P.O., AII 0.1 mcg/kg IV, 60 min post dose): 60%
- inhibition in vivo at 5 mg/kg (2 h, 5 mg/kg P.O., AII 0.05 mcg/kg IV, 120 min post dose): 83%
- inhibition in vivo at 5 mg/kg (2 h, 5 mg/kg P.O., AII 0.1 mcg/kg IV, 120 min post dose): 83%
- inhibition in vivo at 5 mg/kg (3 h, 5 mg/kg P.O., AII 0.05 mcg/kg IV, 180 min post dose): 89%
- inhibition in vivo at 5 mg/kg (3 h, 5 mg/kg P.O., AII 0.1 mcg/kg IV, 180 min post dose): 72%
- inhibition in vivo at 5 mg/kg (4 h, 5 mg/kg P.O., AII 0.05 mcg/kg IV, 240 min post dose): 89%
- inhibition in vivo at 5 mg/kg (4 h, 5 mg/kg P.O., AII 0.1 mcg/kg IV, 240 min post dose): 77%
- inhibition in vivo at 5 mg/kg (5 h, 5 mg/kg P.O., AII 0.05 mcg/kg IV, 300 min post dose): 77%
- inhibition in vivo at 5 mg/kg (5 h, 5 mg/kg P.O., AII 0.1 mcg/kg IV, 300 min post dose): 77%
- inhibition in vivo at 5 mg/kg ([…], 5 mg/kg P.O., AII 0.05 mcg/kg IV, 90 min post dose): 93%
- inhibition in vivo at 5 mg/kg ([…], 5 mg/kg P.O., AII 0.1 mcg/kg IV, 90 min post dose): 94%

Structure (SMILES): CCCCc1nc2ccc([C@@]3(CC)C[C@@H]4CCCN4O3)cc2c(=O)n1Cc1ccc(-c2ccccc2-c2nnn[nH]2)cc1 (relative stereo) [Example 71, Cis-2-butyl-6-(2-ethylhexahydropyrrolo[1,2b]isoxazol-2-yl)-3-[[2'-[1-(1H-tetrazol-5-yl)][1,1'-biphenyl]-4-yl]methyl]-4(3H)-quinazolinone]
- Response Average Change [1]: 20 mmHg
- Response Average Change [2]: 5 mmHg
- Response Average Change [3]: 30 mmHg
- Response Average Change [4]: 15 mmHg
- Response Average Change [5]: 15 mmHg
- Response Average Change [6]: 15 mmHg
- Response Average Change [7]: 20 mmHg
- Response Average Change [8]: 15 mmHg
- Response Average Change [9]: 15 mmHg
- Response Average Change [10]: 20 mmHg
- Response Average Change [11]: 10 mmHg
- Response Average Change [12]: 15 mmHg
- Response Average Change [13]: 22.5 mmHg
- Response Average Change [14]: 23.5 mmHg
- inhibition in vivo at 1 mg/kg [15]: 53%
- inhibition in vivo at 1 mg/kg [16]: 60%
- inhibition in vivo at 1 mg/kg [17]: 88%
- inhibition in vivo at 1 mg/kg [18]: 60%
- inhibition in vivo at 1 mg/kg [19]: 65%
- inhibition in vivo at 1 mg/kg [20]: 73%
- inhibition in vivo at 1 mg/kg [21]: 65%
- inhibition in vivo at 1 mg/kg [22]: 60%
- inhibition in vivo at 1 mg/kg [23]: 65%
- inhibition in vivo at 1 mg/kg [24]: 40%
- inhibition in vivo at 1 mg/kg [25]: 53%
- inhibition in vivo at 1 mg/kg [26]: 37%
- inhibition in vivo at 1 mg/kg [27]: 29%
- inhibition in vivo at 1 mg/kg [28]: 47%
